From ChEMBL document CHEMBL3870329, “Synthesis of peptide nucleic acids (PNA) with a crosslinking agent to RNA and effective inhibition of dicer” (Bioorg Med Chem Lett, 2016)
Values belong to the compound of their own block, whether it stands above or below them. Active and inactive are the calls of the source. The rule behind the calls is not given here.

Columns and labels:
Nucleic Acid [1] = assay: Binding affinity to 5'-end FAM-tagged GACACAATCCCAATCTGGTT DNA (unknown origin) assessed as induction of crosslinking by measuring heteroduplex formation at 4 uM measured after 24 hrs by bromophenol blue staining-based denaturing PAGE analysis relative to control; assay type: nucleic-acid assay
Nucleic Acid [2] = assay: Binding affinity to 5'-end FAM-tagged GACACAAUCCCAAUCUGGUU RNA (unknown origin) assessed as induction of crosslinking by measuring heteroduplex formation at 4 uM measured after 24 hrs by bromophenol blue staining-based denaturing PAGE analysis relative to control; assay type: nucleic-acid assay
Nucleic Acid [3] = assay: Binding affinity to 5'-end FAM-tagged GACCCAAUCCCAAUCUGGUU RNA (unknown origin) assessed as induction of crosslinking by measuring heteroduplex formation at 4 uM measured after 24 hrs by bromophenol blue staining-based denaturing PAGE analysis relative to control; assay type: nucleic-acid assay
Nucleic Acid [4] = assay: Binding affinity to 5'-end FAM-tagged GACGCAATCCCAATCTGGTT DNA (unknown origin) assessed as induction of crosslinking by measuring heteroduplex formation at 4 uM measured after 24 hrs by bromophenol blue staining-based denaturing PAGE analysis relative to control; assay type: nucleic-acid assay
unidentified [5] = assay: Binding affinity to 5'-end FAM-tagged GACUCAAUCCCAAUCUGGUU RNA (unknown origin) assessed as melting temperature at 1.5 uM measured after 5 mins by UV spectrophotometry (reference value: 82.2 degC)
[6] = Binding affinity to 5'-end FAM-tagged GACTCAATCCCAATCTGGTT DNA (unknown origin) assessed as crosslinked adduct formation by MALDI-TOF MS analysis
Nucleic Acid [7] = assay: Binding affinity to 5'-end FAM-tagged GACTCAATCCCAATCTGGTT DNA (unknown origin) assessed as induction of crosslinking by measuring heteroduplex formation at 4 uM measured after 24 hrs by bromophenol blue staining-based denaturing PAGE analysis relative to control; assay type: nucleic-acid assay
Nucleic Acid [8] = assay: Binding affinity to 5'-end FAM-tagged GACUCAAUCCCAAUCUGGUU RNA (unknown origin) assessed as induction of crosslinking by measuring heteroduplex formation at 4 uM measured after 24 hrs by bromophenol blue staining-based denaturing PAGE analysis relative to control; assay type: nucleic-acid assay
Nucleic Acid [9] = assay: Binding affinity to 5'-end FAM-tagged GACGCAAUCCCAAUCUGGUU RNA (unknown origin) assessed as induction of crosslinking by measuring heteroduplex formation at 4 uM measured after 24 hrs by bromophenol blue staining-based denaturing PAGE analysis relative to control; assay type: nucleic-acid assay
Nucleic Acid [10] = assay: Binding affinity to 5'-end FAM-tagged GACCCAATCCCAATCTGGTT DNA (unknown origin) assessed as induction of crosslinking by measuring heteroduplex formation at 4 uM measured after 24 hrs by bromophenol blue staining-based denaturing PAGE analysis relative to control; assay type: nucleic-acid assay
unidentified [11] = assay: Binding affinity to 5'-end FAM-tagged GACTCAATCCCAATCTGGTT DNA (unknown origin) assessed as melting temperature at 1.5 uM measured after 5 mins by UV spectrophotometry (reference value: 79.2 degC)
Nucleic Acid [12] = assay: Binding affinity to synthetic 5'-fluorescein-labelled pre-miR-122 RNA site2 (unknown origin) assessed as heteroduplex formation at 4 uM measured after 48 hrs by non-denaturing PAGE analysis relative to control; assay type: nucleic-acid assay
Nucleic Acid [13] = assay: Binding affinity to synthetic 5'-FAM-labelled pre-miR-122 RNA site2 (unknown origin) assessed as inhibition of human dicer-mediated digestion of pre-miR-122 RNA preincubated with RNA for 2 days followed by dicer addition measured after 2 hrs by denaturing PAGE analysis relative to control; assay type: nucleic-acid assay; conditions: concentration not given here
Nucleic Acid [14] = assay: Binding affinity to synthetic 5'-FAM-labelled pre-miR-122 RNA site2 (unknown origin) assessed as human dicer-mediated digestion of pre-miR-122 RNA preincubated with RNA for 2 days followed by dicer addition measured after 2 hrs by denaturing PAGE analysis; assay type: nucleic-acid assay
Nucleic Acid [15] = assay: Binding affinity to synthetic 5'-FAM-labelled pre-miR-122 RNA site2 (unknown origin) assessed as heteroduplex formation at 4 uM measured after 2 hrs by denaturing PAGE analysis relative to control; assay type: nucleic-acid assay
[16] = Binding affinity to 5'-end FAM-tagged GACCAAUCCCAAUCUGGUU RNA (unknown origin) assessed as change in melting temperature at 1.5 uM measured after 5 mins by UV spectrophotometry
[17] = Binding affinity to 5'-end FAM-tagged GACCAAGCCCAAUCUGGUU RNA (unknown origin) assessed as change in melting temperature at 1.5 uM measured after 5 mins by UV spectrophotometry
[18] = Binding affinity to 5'-end FAM-tagged GACCAACCCCAATCTGGTT DNA (unknown origin) assessed as change in melting temperature at 1.5 uM measured after 5 mins by UV spectrophotometry
[19] = Binding affinity to 5'-end FAM-tagged GACCAAGCCCAATCTGGTT DNA (unknown origin) assessed as change in melting temperature at 1.5 uM measured after 5 mins by UV spectrophotometry
[20] = Binding affinity to 5'-end FAM-tagged GACCAAACCCAAUCUGGUU RNA (unknown origin) assessed as change in melting temperature at 1.5 uM measured after 5 mins by UV spectrophotometry
[21] = Binding affinity to 5'-end FAM-tagged GACCAAACCCAATCTGGTT DNA (unknown origin) assessed as change in melting temperature at 1.5 uM measured after 5 mins by UV spectrophotometry
[22] = Binding affinity to 5'-end FAM-tagged GACCAATCCCAATCTGGTT DNA (unknown origin) assessed as change in melting temperature at 1.5 uM measured after 5 mins by UV spectrophotometry
[23] = Binding affinity to 5'-end FAM-tagged GACCAACCCCAAUCUGGUU RNA (unknown origin) assessed as change in melting temperature at 1.5 uM measured after 5 mins by UV spectrophotometry
Nucleic Acid [24] = assay: Binding affinity to synthetic 5'-FAM-labelled pre-miR-122 RNA site3 (unknown origin) assessed as inhibition of human dicer-mediated digestion of pre-miR-122 RNA by measuring heteroduplex formation preincubated with RNA for 2 days followed by dicer addition measured after 2 hrs by denaturing PAGE analysis relative to control; assay type: nucleic-acid assay; conditions: concentration not given here
Nucleic Acid [25] = assay: Binding affinity to synthetic 5'-FAM-labelled pre-miR-122 RNA site3 (unknown origin) assessed as human dicer-mediated digestion of pre-miR-122 RNA preincubated with RNA for 2 days followed by dicer addition measured after 2 hrs by denaturing PAGE analysis; assay type: nucleic-acid assay
Nucleic Acid [26] = assay: Binding affinity to synthetic 5'-fluorescein-labelled pre-miR-122 RNA site3 (unknown origin) assessed as heteroduplex formation at 4 uM measured after 48 hrs by non-denaturing PAGE analysis relative to control; assay type: nucleic-acid assay
Nucleic Acid [27] = assay: Binding affinity to synthetic 5'-FAM-labelled pre-miR-122 RNA site3 (unknown origin) assessed as heteroduplex formation at 4 uM measured after 2 hrs by denaturing PAGE analysis relative to control; assay type: nucleic-acid assay
Nucleic Acid [28] = assay: Binding affinity to synthetic 5'-FAM-labelled pre-miR-122 RNA site1 (unknown origin) assessed as human dicer-mediated digestion of pre-miR-122 RNA preincubated with RNA for 2 days followed by dicer addition measured after 2 hrs by denaturing PAGE analysis; assay type: nucleic-acid assay
Nucleic Acid [29] = assay: Binding affinity to synthetic 5'-FAM-labelled pre-miR-122 RNA site1 (unknown origin) assessed as inhibition of human dicer-mediated digestion of pre-miR-122 RNA preincubated with RNA for 2 days followed by dicer addition measured after 2 hrs by denaturing PAGE analysis relative to control; assay type: nucleic-acid assay; conditions: concentration not given here
Nucleic Acid [30] = assay: Binding affinity to synthetic 5'-FAM-labelled pre-miR-122 RNA site1 (unknown origin) assessed as heteroduplex formation at 4 uM measured after 2 hrs by denaturing PAGE analysis relative to control; assay type: nucleic-acid assay
Nucleic Acid [31] = assay: Binding affinity to synthetic 5'-fluorescein-labelled pre-miR-122 RNA site1 (unknown origin) assessed as heteroduplex formation at 4 uM measured after 48 hrs by non-denaturing PAGE analysis relative to control; assay type: nucleic-acid assay

Activity (Nucleic Acid [1]): 1%
Activity (Nucleic Acid [2]): 0%
Activity (Nucleic Acid [3]): 2%
Activity (Nucleic Acid [4]): 3%
Tm (unidentified [5]): 84.5 °C
Activity [6]: Active
Activity (Nucleic Acid [7]): 52%
Activity (Nucleic Acid [8]): 62%
Activity (Nucleic Acid [9]): 2%
Activity (Nucleic Acid [10]): 2%
Tm (unidentified [11]): 80.3 °C
Compound: C=Cc1nc(N)nc2c1ncn2CC(=O)N(CCNC(C)=O)CC(=O)NCCN(CC(=O)NCCN(CC(=O)NCCN(CC(=O)NCCN(CC(=O)NCCN(CC(=O)NCCN(CC(=O)NCCN(CC(=O)NCCN(CC(=O)NCCN(CC(=O)NCCN(CC(=O)NCCN(CC(=O)N[C@@H](CCCNC(=N)N)C(=O)N[C@@H](CCCNC(=N)N)C(=O)NCC(N)=O)C(=O)Cn1cnc2c(=O)[nH]c(N)nc21)C(=O)Cn1cnc2c(N)ncnc21)C(=O)Cn1cc(C)c(=O)[nH]c1=O)C(=O)Cn1cc(C)c(=O)[nH]c1=O)C(=O)Cn1cnc2c(=O)[nH]c(N)nc21)C(=O)Cn1cnc2c(=O)[nH]c(N)nc21)C(=O)Cn1cnc2c(=O)[nH]c(N)nc21)C(=O)Cn1cnc2c(N)ncnc21)C(=O)Cn1cc(C)c(=O)[nH]c1=O)C(=O)Cn1cc(C)c(=O)[nH]c1=O)C(=O)Cn1cnc2c(=O)[nH]c(N)nc21

ΔTm [16]: -5.9 °C
ΔTm [17]: -11 °C
ΔTm [18]: -10.3 °C
ΔTm [19]: -11 °C
ΔTm [20]: -10.1 °C
ΔTm [21]: -10.6 °C
ΔTm [22]: -9.9 °C
ΔTm [23]: -6.1 °C
Compound: CSCCc1nc(N)nc2c1ncn2CC(=O)N(CCNC(=O)CN(CCNC(=O)CN(CCNC(=O)CN(CCNC(C)=O)C(=O)Cn1cnc2c(=O)[nH]c(N)nc21)C(=O)Cn1cc(C)c(=O)[nH]c1=O)C(=O)Cn1cc(C)c(=O)[nH]c1=O)CC(=O)NCCN(CC(=O)NCCN(CC(=O)NCCN(CC(=O)NCCN(CC(=O)NCCN(CC(=O)NCCN(CC(=O)NCCN(CC(=O)N[C@@H](CCCNC(=N)N)C(=O)N[C@@H](CCCNC(=N)N)C(=O)NCC(N)=O)C(=O)Cn1cnc2c(=O)[nH]c(N)nc21)C(=O)Cn1cnc2c(N)ncnc21)C(=O)Cn1cc(C)c(=O)[nH]c1=O)C(=O)Cn1cc(C)c(=O)[nH]c1=O)C(=O)Cn1cnc2c(=O)[nH]c(N)nc21)C(=O)Cn1cnc2c(=O)[nH]c(N)nc21)C(=O)Cn1cnc2c(=O)[nH]c(N)nc21

Second part, the compound before the results:

Compound: C=Cc1nc(N)nc2c1ncn2CC(=O)N(CCN)CC(=O)NCCN(CC(=O)NCCN(CC(=O)NCCN(CC(=O)NCCN(CC(=O)NCCN(CC(=O)NCCN(CC(=O)NCCN(CC(=O)NCCN(CC(=O)NCCN(CC(=O)NCCN(CC(=O)NCCN(CC(=O)NCCN(CC(=O)N[C@@H](CCCNC(=N)N)C(=O)O)C(=O)Cn1ccc(N)nc1=O)C(=O)Cn1ccc(N)nc1=O)C(=O)Cn1cc(C)c(=O)[nH]c1=O)C(=O)Cn1ccc(N)nc1=O)C(=O)Cn1cnc2c(N)ncnc21)C(=O)Cn1ccc(N)nc1=O)C(=O)Cn1cnc2c(N)ncnc21)C(=O)Cn1ccc(N)nc1=O)C(=O)Cn1cc(C)c(=O)[nH]c1=O)C(=O)Cn1cnc2c(=O)[nH]c(N)nc21)C(=O)Cn1cc(C)c(=O)[nH]c1=O)C(=O)Cn1cc(C)c(=O)[nH]c1=O
Activity (Nucleic Acid [12]): 41%
inhibition (Nucleic Acid [13]): 41%
Activity (Nucleic Acid [14]): 59%
Activity (Nucleic Acid [15]): 15%

Compound: C=Cc1nc(N)nc2c1ncn2CC(=O)N(CCN)CC(=O)NCCN(CC(=O)NCCN(CC(=O)NCCN(CC(=O)NCCN(CC(=O)NCCN(CC(=O)NCCN(CC(=O)NCCN(CC(=O)NCCN(CC(=O)NCCN(CC(=O)NCCN(CC(=O)NCCN(CC(=O)NCCN(CC(=O)N[C@@H](CCCNC(=N)N)C(=O)O)C(=O)Cn1ccc(N)nc1=O)C(=O)Cn1cnc2c(N)ncnc21)C(=O)Cn1ccc(N)nc1=O)C(=O)Cn1cnc2c(N)ncnc21)C(=O)Cn1cnc2c(=O)[nH]c(N)nc21)C(=O)Cn1cnc2c(N)ncnc21)C(=O)Cn1cc(C)c(=O)[nH]c1=O)C(=O)Cn1cc(C)c(=O)[nH]c1=O)C(=O)Cn1cc(C)c(=O)[nH]c1=O)C(=O)Cn1cnc2c(=O)[nH]c(N)nc21)C(=O)Cn1cnc2c(N)ncnc21)C(=O)Cn1cc(C)c(=O)[nH]c1=O
inhibition (Nucleic Acid [24]): 76%
Activity (Nucleic Acid [25]): 24%
Activity (Nucleic Acid [26]): 85%
Activity (Nucleic Acid [27]): 72%

Compound: C=Cc1nc(N)nc2c1ncn2CC(=O)N(CCN)CC(=O)NCCN(CC(=O)NCCN(CC(=O)NCCN(CC(=O)NCCN(CC(=O)NCCN(CC(=O)NCCN(CC(=O)NCCN(CC(=O)NCCN(CC(=O)NCCN(CC(=O)NCCN(CC(=O)NCCN(CC(=O)NCCN(CC(=O)N[C@@H](CCCNC(=N)N)C(=O)O)C(=O)Cn1cnc2c(N)ncnc21)C(=O)Cn1cc(C)c(=O)[nH]c1=O)C(=O)Cn1cnc2c(N)ncnc21)C(=O)Cn1cnc2c(=O)[nH]c(N)nc21)C(=O)Cn1cc(C)c(=O)[nH]c1=O)C(=O)Cn1cc(C)c(=O)[nH]c1=O)C(=O)Cn1cc(C)c(=O)[nH]c1=O)C(=O)Cn1cnc2c(=O)[nH]c(N)nc21)C(=O)Cn1ccc(N)nc1=O)C(=O)Cn1cnc2c(=O)[nH]c(N)nc21)C(=O)Cn1cnc2c(=O)[nH]c(N)nc21)C(=O)Cn1cc(C)c(=O)[nH]c1=O
Activity (Nucleic Acid [28]): 90%
inhibition (Nucleic Acid [29]): 10%
Activity (Nucleic Acid [30]): 8%
Activity (Nucleic Acid [31]): 10%
